Measured values published in patent US11318178B2, “Lactobacillus reuteri ATG-F4 strain having function of enhancing dopamine secretion and pharmaceutical composition comprising same for prevention or treatment of psychopathy” (ATOGEN CO., LTD, priority 2018, dated 2022).

Columns and labels:
[1] = system: mouse macrophage cell line RAW264.7; experiment: IL-10 ELISA of culture solution of RAW264.7 cells with or without LPS; assay type: cell-based; details: 1 μg/ml LPS alone (positive control), 24 hr
Description: In order to measure the anti-inflammatory effect of F4 lactic-acid bacteria, a cytokine quantification experiment using cells was performed. F4 lactic-acid bacteria as a treatment material were subjected to liquid culture in an MRS broth and were then centrifuged, after which the cells of the strain were recovered and concentrated 10-fold. The concentrated solution thus obtained was treated with lysozyme for 1 hr, lysed through sonication, and then quantified through solid content analysis. […] In order to confirm whether the generation of nitric oxide (NO) as an additional inflammation indicator was inhibited in the LPS-induced group, a predetermined amount of the cell culture supernatant obtained in the cell experiment for measuring cytokines was transferred into 96 wells, and 100 μl of a Griess reagent (modified, SIGMA, USA) was injected thereto, after which reaction was carried out at room temperature for 10 min and absorbance at 540 nm was measured using an ELISA reader. The amount of NO that was produced was calculated by comparing the proportion of NO present in the cell culture solution with the LPS-treated group as a control.

dopamine = experiment: Serum dopamine ELISA after 4-week feeding of mice; assay type: in vivo, C57BL/6J mice; details: 4 weeks in drinking water (F4 about 10^7 CFU/ml; ampicillin 1 g/l); control 2.95 ng/ml
From the text: (§1) Before all animal experiments, animal experimentation was approved and approval number ATG-IACUC-REV-180810 was granted through appropriate procedures by the Institutional Animal Care and Use Committee (IACUC) of AtoGEN, and a guide to ethical animal experiments was followed. 4-week-old C57BL/6J mice were purchased through Central Laboratory Animal (Seoul, Korea), and the experimental groups that were used were a control fed with general feed and drinking water (Ctrl), a gut microbiota dysbiosis experimental group (Amp) fed with general feed and drinking water containing 1 g/l of ampicillin, and an experimental group fed with general feed and drinking water containing about 10^7 CFU/ml of lactic-acid bacteria F4 (F4). Five mice were used for each experimental group. After stabilizing the 4-week-old mice for 1 week, the experiment was conducted for 4 weeks using the experimental groups described above. The entire experiment was independently repeated twice.
(§2) After the 4-week feeding experiment, the mice were anesthetized using ether, and blood was obtained from the heart thereof. […] The serum thus obtained was measured to determine the amounts of dopamine and serotonin in the blood using a dopamine ELISA kit (Abnova, Taiwan) and a serotonin ELISA kit (Abcam, USA).

serotonin = experiment: Serum serotonin ELISA after 4-week feeding of mice; assay type: in vivo, C57BL/6J mice; details: 4 weeks in drinking water (F4 about 10^7 CFU/ml; ampicillin 1 g/l); control 3537.2 ng/ml
From the text: as §1, §2

Compound | IL-10 production [1] [pg/mL] | dopamine in serum (dopamine) [ng/mL] | serotonin in serum (serotonin) [ng/mL]
lipopolysaccharide [LPS] | 166.60 | – | –
CC1(C)S[C@@H]2[C@H](NC(=O)[C@H](N)c3ccccc3)C(=O)N2[C@H]1C(=O)O [Amp, ampicillin] | – | 2.09 | 2365.0
